Data from the supplement of paper PMC5908809.

Legend:
[1] = tested on: normal primary NK cells, pool 1 (3 donors), resting (IL-2 0 ng/mL); assay: percent inhibition of viability; higher = more inhibition; conditions: 72 h
[2] = tested on: normal primary NK cells, pool 3 (3 donors) (IL-2 2.5 ng/mL); assay: as above; conditions: 72 h
NK-YS (IL-2 2.5 ng/mL) [3] = assay: as above; conditions: 72 h
KAI3 (IL-2 2.5 ng/mL) [4] = assay: as above; conditions: 72 h
SNK-6 (IL-2 2.5 ng/mL) [5] = assay: as above; conditions: 72 h
[6] = tested on: normal primary NK cells, pool 1 (3 donors) (IL-2 2.5 ng/mL); assay: as above; conditions: 72 h
IMC-1 (IL-2 20 ng/mL) [7] = assay: as above; conditions: 72 h
NK-92 (IL-2 2.5 ng/mL) [8] = assay: as above; conditions: 72 h
[9] = tested on: normal primary NK cells, pool 2 (3 donors) (IL-2 2.5 ng/mL); assay: as above; conditions: 72 h
DERL-7 (IL-2 2.5 ng/mL) [10] = assay: as above; conditions: 72 h
YT (IL-2 2.5 ng/mL) [11] = assay: as above; conditions: 72 h
NKL (IL-2 2.5 ng/mL) [12] = assay: as above; conditions: 72 h
KHYG-1 (IL-2 2.5 ng/mL) [13] = assay: as above; conditions: 72 h
[14] = tested on: normal NK cells expanded with K562-aAPC; assay: drug sensitivity score (DSS) (DSS units); higher = more sensitive; extreme values may be limits of the assay; conditions: 72 h; IL-2 2.5 ng/mL
Experimental: (§1)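 Drug sensitivity and resistance testing on K562-aAPC-expanded normal NK cells: 5 concentrations (10-fold steps over a 10,000-fold range), 72 h at 37 °C, viability by CellTiter-Glo normalised to DMSO and benzethonium chloride controls; DSS from the fitted curve.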

[15] = tested on: normal NK cells expanded with K562-aAPC; assay: percent inhibition of viability; higher = more inhibition; conditions: 72 h, IL-2 2.5 ng/mL
Experimental: as §1

[16] = tested on: normal primary NK cells, pool 1 (3 donors), resting (IL-2 0 ng/mL); assay: drug sensitivity score (DSS) (DSS units); higher = more sensitive; extreme values may be limits of the assay; conditions: 72 h
[17] = tested on: normal primary NK cells, pool 3 (3 donors) (IL-2 2.5 ng/mL); assay: as above; conditions: 72 h
NK-YS (IL-2 2.5 ng/mL) [18] = assay: as above; conditions: 72 h
KAI3 (IL-2 2.5 ng/mL) [19] = assay: as above; conditions: 72 h
SNK-6 (IL-2 2.5 ng/mL) [20] = assay: as above; conditions: 72 h
[21] = tested on: normal primary NK cells, pool 1 (3 donors) (IL-2 2.5 ng/mL); assay: as above; conditions: 72 h
IMC-1 (IL-2 20 ng/mL) [22] = assay: as above; conditions: 72 h
NK-92 (IL-2 2.5 ng/mL) [23] = assay: as above; conditions: 72 h
[24] = tested on: normal primary NK cells, pool 2 (3 donors) (IL-2 2.5 ng/mL); assay: as above; conditions: 72 h
DERL-7 (IL-2 2.5 ng/mL) [25] = assay: as above; conditions: 72 h
YT (IL-2 2.5 ng/mL) [26] = assay: as above; conditions: 72 h
NKL (IL-2 2.5 ng/mL) [27] = assay: as above; conditions: 72 h
KHYG-1 (IL-2 2.5 ng/mL) [28] = assay: as above; conditions: 72 h

Cc1c(CN2CCN(C(=O)[C@H](C)O)CC2)sc2c(N3CCOCC3)nc(-c3cnc(N)nc3)nc12 [Apitolisib] (max concentration tested 10000 nM)
percent inhibition of viability [%]
Conditions	1 nM	10 nM	100 nM	1000 nM	10000 nM
DERL-7 (IL-2 2.5 ng/mL) [10]	3.04	1.57	29.2	78.4	92.4
IMC-1 (IL-2 20 ng/mL) [7]	-4.85	-5.41	-12.6	-55.2	8.81
KAI3 (IL-2 2.5 ng/mL) [4]	0.17	-2.02	17.9	39.6	65.3
KHYG-1 (IL-2 2.5 ng/mL) [13]	-2.58	-0.95	-1.53	18	76.4
NK-92 (IL-2 2.5 ng/mL) [8]	16	7.33	22.5	45.1	57.8
NK-YS (IL-2 2.5 ng/mL) [3]	-2.41	1.63	8.5	47.2	73.8
NKL (IL-2 2.5 ng/mL) [12]	-12	-7.01	2.26	53.8	65.7
SNK-6 (IL-2 2.5 ng/mL) [5]	13.8	9.78	15.2	21.3	45.5
YT (IL-2 2.5 ng/mL) [11]	0.06	0.22	4.58	47.5	71
[1]	-0.63	-14.4	-6.11	24.3	34.8
[2]	-10.7	-12.9	-5.47	6.17	59.6
[6]	-11.8	-13.1	4.5	40.1	75
[9]	-13.9	-6.6	0.47	22.1	66.1
[15]	2.46	-0.12	17.4	39.8	85.8

Conditions	drug sensitivity score
DERL-7 (IL-2 2.5 ng/mL) [25]	18
IMC-1 (IL-2 20 ng/mL) [22]	0
KAI3 (IL-2 2.5 ng/mL) [19]	9.5
KHYG-1 (IL-2 2.5 ng/mL) [28]	7.06
NK-92 (IL-2 2.5 ng/mL) [23]	11.3
NK-YS (IL-2 2.5 ng/mL) [18]	10.2
NKL (IL-2 2.5 ng/mL) [27]	10.3
SNK-6 (IL-2 2.5 ng/mL) [20]	6.63
YT (IL-2 2.5 ng/mL) [26]	9.84
[14]	10
[16]	4.44
[17]	4.24
[21]	8.91
[24]	6.81

CN(N=O)C(=O)N[C@@H](C=O)[C@@H](O)[C@H](O)[C@H](O)CO [Streptozocin] (max concentration tested 10000 nM)
percent inhibition of viability [%]
Conditions	1 nM	10 nM	100 nM	1000 nM	10000 nM
DERL-7 (IL-2 2.5 ng/mL) [10]	-4.65	-4.39	-0.36	-4.36	-9.4
IMC-1 (IL-2 20 ng/mL) [7]	-3	-1.77	1.49	5.01	21.2
KAI3 (IL-2 2.5 ng/mL) [4]	-8.8	-7.24	-7.83	-15.1	-3.23
KHYG-1 (IL-2 2.5 ng/mL) [13]	-0.99	-4.93	2.57	-0.52	4.73
NK-92 (IL-2 2.5 ng/mL) [8]	-10.2	-0.49	-2.54	-2.99	-3.48
NK-YS (IL-2 2.5 ng/mL) [3]	-3.08	-5.94	5.25	-5.62	10.8
NKL (IL-2 2.5 ng/mL) [12]	-22.4	-14.9	-15.8	-16.6	-9.59
SNK-6 (IL-2 2.5 ng/mL) [5]	4.98	18.1	36.6	23.4	36.7
YT (IL-2 2.5 ng/mL) [11]	-1.12	-3.14	1.58	-0.51	9.38
[1]	-9.25	-22.8	-15.8	-38.7	-21.4
[2]	-12.8	-5.88	-5.23	-3.37	-3
[6]	-0.38	-7.4	-2.69	-9.47	-1.13
[9]	-14.4	-2.41	1.68	-6.8	-12.2
[15]	-0.04	4.41	2.61	7.51	13.9

Conditions	drug sensitivity score
DERL-7 (IL-2 2.5 ng/mL) [25]	0
IMC-1 (IL-2 20 ng/mL) [22]	1.35
KAI3 (IL-2 2.5 ng/mL) [19]	0
KHYG-1 (IL-2 2.5 ng/mL) [28]	0
NK-92 (IL-2 2.5 ng/mL) [23]	0
NK-YS (IL-2 2.5 ng/mL) [18]	0
NKL (IL-2 2.5 ng/mL) [27]	0
SNK-6 (IL-2 2.5 ng/mL) [20]	12.4
YT (IL-2 2.5 ng/mL) [26]	0
[14]	0.16
[16]	0
[17]	0
[21]	0
[24]	0

CNC(=O)c1ccccc1Sc1ccc2c(/C=C/c3ccccn3)n[nH]c2c1 [Axitinib] (max concentration tested 10000 nM)
percent inhibition of viability [%]
Conditions	1 nM	10 nM	100 nM	1000 nM	10000 nM
DERL-7 (IL-2 2.5 ng/mL) [10]	-3.47	7.74	27	64.5	94
IMC-1 (IL-2 20 ng/mL) [7]	-1.86	-0.66	0.71	4.7	89.3
KAI3 (IL-2 2.5 ng/mL) [4]	2.52	-0.91	10.2	47.2	82
KHYG-1 (IL-2 2.5 ng/mL) [13]	-2.88	-3.36	4.43	49.4	93.1
NK-92 (IL-2 2.5 ng/mL) [8]	-13.6	-7.2	-14	24.3	90.7
NK-YS (IL-2 2.5 ng/mL) [3]	-3.68	-2.56	3.21	38.7	85
NKL (IL-2 2.5 ng/mL) [12]	-1.55	-1.93	18.9	32.5	69.6
SNK-6 (IL-2 2.5 ng/mL) [5]	-4.55	-16.4	-11.7	55.8	78.6
YT (IL-2 2.5 ng/mL) [11]	-2.15	-4.48	1.03	33	85
[1]	-14.3	9	2.7	0.6	42.6
[2]	-8.62	6.8	13	1.12	23
[6]	-5.69	14.3	5.75	13.8	44.6
[9]	-13.7	4.14	6.01	-6.27	42.8
[15]	-1.18	-2.54	-3.5	11.1	58.7

Conditions	drug sensitivity score
DERL-7 (IL-2 2.5 ng/mL) [25]	15.7
IMC-1 (IL-2 20 ng/mL) [22]	5.63
KAI3 (IL-2 2.5 ng/mL) [19]	10.5
KHYG-1 (IL-2 2.5 ng/mL) [28]	11
NK-92 (IL-2 2.5 ng/mL) [23]	8.68
NK-YS (IL-2 2.5 ng/mL) [18]	9.35
NKL (IL-2 2.5 ng/mL) [27]	8.51
SNK-6 (IL-2 2.5 ng/mL) [20]	10.8
YT (IL-2 2.5 ng/mL) [26]	9.19
[14]	5.02
[16]	2.23
[17]	0.95
[21]	3.89
[24]	1.77
